Assay results as given in ChEMBL document CHEMBL5724914, “Linking interpersonal differences in gut microbiota composition and drug biotransformation activity” (2024).

What was measured:
[1] = (§1) The drug is tested on Z-028 corresponding to mouse gut metagenome with ENA study accession number: PRJEB37062 and ENA sample accession number: ERS12561827 for biotransformation under anaerobic condition. The drug concentrations were measured over 9 timepoints collected between 0 and 24 hours of incubation by liquid-chromatography-coupled mass spectrometry (LC–MS); details: 2 µM
[2] = as §1, with “Z-023” for “Z-028”, “to” for “to mouse gut”, “ERS12561822” for “ERS12561827”; details: 2 µM
[3] = as §1, with “Z-018” for “Z-028”, “pig” for “mouse”, “ERS12561817” for “ERS12561827”; details: 2 µM
[4] = as §1, with “Z-013” for “Z-028”, “rabbit” for “mouse”, “ERS12561813” for “ERS12561827”; details: 2 µM
[5] = as §1, with “Z-011” for “Z-028”, “ERS12561811” for “ERS12561827”; details: 2 µM
[6] = as §1, with “Z-010” for “Z-028”, “to” for “to mouse gut”, “ERS12561810” for “ERS12561827”; details: 2 µM
[7] = as §1, with “Z-008” for “Z-028”, “to” for “to mouse gut”, “ERS12561808” for “ERS12561827”; details: 2 µM
[8] = as §1, with “Z-006” for “Z-028”, “ERS12561806” for “ERS12561827”; details: 2 µM
[9] = as §1, with “Z-001” for “Z-028”, “ERS12561801” for “ERS12561827”; details: 2 µM
[10] = as §1, with “WLS-350” for “Z-028”, “human” for “mouse”, “ERS12561789” for “ERS12561827”; details: 2 µM
[11] = as §1, with “WLS-240” for “Z-028”, “human” for “mouse”, “ERS12561773” for “ERS12561827”; details: 2 µM
[12] = as §1, with “WLS-077” for “Z-028”, “human” for “mouse”, “ERS12561750” for “ERS12561827”; details: 2 µM
[13] = as §1, with “WLS-039” for “Z-028”, “human” for “mouse”, “ERS12561746” for “ERS12561827”; details: 2 µM
[14] = human gut metagenome, 24 h, 2 µM
[15] = human gut metagenome, 24 h, 2 µM; remark: listed apart in the source
[16] = human gut metagenome, 24 h, 2 µM; remark: listed apart in the source
[17] = human gut metagenome, 24 h, 2 µM; remark: listed apart in the source
[18] = human gut metagenome, 24 h, 2 µM; remark: listed apart in the source
[19] = human gut metagenome, 24 h, 2 µM; remark: listed apart in the source
[20] = human gut metagenome, 24 h, 2 µM; remark: listed apart in the source
Note: call rule not given here.

Compound | Bacterial Biotransformation [1] | Bacterial Biotransformation [2] | Bacterial Biotransformation [3] | Bacterial Biotransformation [4] | Bacterial Biotransformation [5] | Bacterial Biotransformation [6] | Bacterial Biotransformation [7] | Bacterial Biotransformation [8] | Bacterial Biotransformation [9] | Bacterial Biotransformation [10] | Bacterial Biotransformation [11] | Bacterial Biotransformation [12] | Bacterial Biotransformation [13] | Bacterial Biotransformation [14] | Bacterial Biotransformation [15] | Bacterial Biotransformation [16] | Bacterial Biotransformation [17] | Bacterial Biotransformation [18] | Bacterial Biotransformation [19] | Bacterial Biotransformation [20]
O=C(NC(Cc1cc(=O)[nH]c2ccccc12)C(=O)O)c1ccc(Cl)cc1 (stereo not given) [REBAMIPIDE] | Compound NOT metabolized | Compound metabolized | Compound NOT metabolized | Compound NOT metabolized | Compound NOT metabolized | Compound NOT metabolized | Compound NOT metabolized | Compound NOT metabolized | Compound NOT metabolized | Compound NOT metabolized | Compound NOT metabolized | Compound NOT metabolized | Compound NOT metabolized | Compound metabolized | Compound NOT metabolized | Compound NOT metabolized | Compound NOT metabolized | Compound NOT metabolized | Compound NOT metabolized | Compound NOT metabolized
CCOc1cc(CC(=O)N[C@@H](CC(C)C)c2ccccc2N2CCCCC2)ccc1C(=O)O [REPAGLINIDE] | Compound metabolized | Compound metabolized | Compound NOT metabolized | Compound NOT metabolized | Compound NOT metabolized | Compound metabolized | Compound metabolized | Compound metabolized | Compound metabolized | Compound metabolized | Compound metabolized | Compound metabolized | Compound metabolized | Compound metabolized | Compound metabolized | Compound metabolized | Compound metabolized | Compound metabolized | Compound metabolized | Compound metabolized
CC(N)C12CC3CC(CC(C3)C1)C2 (stereo not given) [RIMANTADINE] | Compound NOT metabolized | Compound NOT metabolized | Compound NOT metabolized | Compound NOT metabolized | Compound NOT metabolized | Compound NOT metabolized | Compound NOT metabolized | Compound NOT metabolized | Compound NOT metabolized | Compound NOT metabolized | Compound NOT metabolized | Compound NOT metabolized | Compound NOT metabolized | Compound NOT metabolized | Compound NOT metabolized | Compound NOT metabolized | Compound NOT metabolized | Compound NOT metabolized | Compound NOT metabolized | Compound NOT metabolized
CCN(C)C(=O)Oc1cccc([C@H](C)N(C)C)c1.O=C(O)C(O)C(O)C(=O)O [RIVASTIGMINE TARTRATE] | Compound NOT metabolized | Compound NOT metabolized | Compound NOT metabolized | Compound NOT metabolized | Compound NOT metabolized | Compound NOT metabolized | Compound NOT metabolized | Compound NOT metabolized | Compound NOT metabolized | Compound NOT metabolized | Compound metabolized | Compound NOT metabolized | Compound metabolized | Compound NOT metabolized | Compound NOT metabolized | Compound NOT metabolized | Compound metabolized | Compound metabolized | Compound NOT metabolized | Compound NOT metabolized
CCCN(CCC)CCc1cccc2c1CC(=O)N2 [ROPINIROLE] | Compound NOT metabolized | Compound NOT metabolized | Compound metabolized | Compound NOT metabolized | Compound NOT metabolized | Compound NOT metabolized | Compound NOT metabolized | Compound NOT metabolized | Compound NOT metabolized | Compound NOT metabolized | Compound NOT metabolized | Compound NOT metabolized | Compound NOT metabolized | Compound NOT metabolized | Compound NOT metabolized | Compound NOT metabolized | Compound metabolized | Compound NOT metabolized | Compound NOT metabolized | Compound metabolized
CN[C@H]1CC[C@@H](c2ccc(Cl)c(Cl)c2)c2ccccc21 [SERTRALINE] | Compound NOT metabolized | Compound metabolized | Compound metabolized | Compound NOT metabolized | Compound metabolized | Compound metabolized | Compound NOT metabolized | Compound NOT metabolized | Compound NOT metabolized | Compound NOT metabolized | Compound NOT metabolized | Compound metabolized | Compound metabolized | Compound metabolized | Compound metabolized | Compound metabolized | Compound NOT metabolized | Compound NOT metabolized | Compound NOT metabolized | Compound NOT metabolized
O=C(O)CCC(=O)O.O=C(O[C@H]1CN2CCC1CC2)N1CCc2ccccc2[C@@H]1c1ccccc1 [SOLIFENACIN SUCCINATE] | Compound NOT metabolized | Compound metabolized | Compound metabolized | Compound NOT metabolized | Compound NOT metabolized | Compound metabolized | Compound NOT metabolized | Compound NOT metabolized | Compound NOT metabolized | Compound metabolized | Compound metabolized | Compound NOT metabolized | Compound metabolized | Compound NOT metabolized | Compound metabolized | Compound metabolized | Compound metabolized | Compound NOT metabolized | Compound metabolized | Compound metabolized
O=C(CCCN1CCC2(CC1)C(=O)NCN2c1ccccc1)c1ccc(F)cc1 [SPIPERONE] | Compound NOT metabolized | Compound metabolized | Compound NOT metabolized | Compound NOT metabolized | Compound NOT metabolized | Compound metabolized | Compound NOT metabolized | Compound NOT metabolized | Compound NOT metabolized | Compound NOT metabolized | Compound NOT metabolized | Compound NOT metabolized | Compound NOT metabolized | Compound NOT metabolized | Compound metabolized | Compound metabolized | Compound metabolized | Compound NOT metabolized | Compound NOT metabolized | Compound NOT metabolized
